Reference: patent US20050245508A1, “Treatment of malignant gliomas with TGF-beta inhibitors” (SCIOS, Inc., priority 2003, published 2005)

Key:
glioma cells = experiment: Viability of glioma cells in response to serum deprivation; assay type: cell-based; details: data not shown
Description: (§1) The glioma cells and CCL64 cells were maintained in DMEM supplemented with 2 mM L-glutamine (Gibco Life Technologies, Paisley, UK), 10% FCS (Biochrom KG, Berlin, Germany) and penicillin (100 IU/ml)/streptomycin (100 μg/ml) (Gibco). Growth and viability of the glioma cells was examined by crystal violet, LDH release (Roche, Mannheim, Germany) and trypan blue dye exclusion assays. To assess clonogenicity, 500 SMA-560 cells were seeded into 6 well plates (9.4 cm^2). After formation of visible cell formations, colonies>20 cells were counted.

[1] = system: SMA-560 intracranial experimental glioma; experiment: Syngeneic SMA-560 intracranial glioma in VM/Dk mice; assay type: in vivo
Description: FIG. 4. […] A. VM/Dk mice received an intracranial injection of 5×10^3 SMA-560 cells. […] B. The animals were treated as in A, but were sacrificed on day 10 to obtain splenocytes. IFN-γ release at 24 h was assessed by Elispot. Data are expressed as cytokine-producing cells per 10^6 effector cells. C. The splenocytes were stimulated with IL-2 for 10 days to generate LAK cells.
VM/Dk mice were purchased from the TSE Research Center (Berkshire, UK). Mice of 6-12 weeks of age were used in all experiments. The experiments were performed according to the German animal protection law. Groups of 7-8 mice were anesthesized before all intracranial procedures and placed in a stereotaxic fixation device (Stoelting, Wood Dale, Ill.). A burr hole was drilled in the skull 2 mm lateral to the bregma. The needle of a Hamilton syringe (Hamilton, Darmstadt, Germany) was introduced to a depth of 3 mm. […] The mice were observed daily and, in the survival experiments, sacrified when developing neurological symptoms, or sacrificed as indicated in the other experiments.

[2] = Solubility in drinking water; assay type: physicochemical
SMA-560 glioma cells = experiment: Cytotoxicity, LDH release and trypan blue dye exclusion; assay type: cell-based, murine; details: up to 1 μM for 72 h
Description: as §1

[3] = system: CCL64 mink lung epithelial cells; experiment: CCL64 TGF-β bioassay (growth, crystal violet); assay type: cell-based
Description: FIG. 1. Prevention of the growth inhibitory effects of recombinant and glioma-derived TGF-b1 and TGF-b2 by a TGF-β inhibitor (Compound No. 79 in Table 2). A. CCL64 cells were exposed to human recombinant TGF-b1 (filled symbols) or TGF-b2 (open symbols) (10 ng/ml) in the absence or presence of increasing concentrations of Comopund No. 79 for 72 h. B. CCL64 cells were maintained in serum-free medium containing heat-activated glioma cell SN (1:1) in the absence or presence of Compound No. 79 for 72 h. Growth was assessed by crystal violet assay (mean and SD, n=3).
The levels of bioactive TGF-β were determined using the CCL64 bioassay. Briefly, […] CCL64 cells were adhered to 96 well plates for 24 h, full medium was replaced by serum-free medium, and the cells were exposed to recombinant TGF-β1/2 or glioma cell culture supernatants diluted in serum-free medium for 72 h. Growth was assessed by crystal violet staining at 72 h. Glioma cell supernatants were harvested from confluent cultures maintained for 48 h in serum-free medium and heat-treated (5 min, 85° C.) to activate latent TGF-β (Leitlein et al., J. Immunol., 166:7238-7243 (2001)).

[4] = system: splenocytes / LAK cells against SMA-560; experiment: Ex vivo immune effector assays, splenocytes of glioma-bearing mice; assay type: in vivo, VM/Dk mice
Description: FIG. 4. Compound No. 79 inhibits the growth of syngeneic SMA-560 experimental gliomas in vivo and promotes immune activation. A. VM/Dk mice received an intracranial injection of 5×10^3 SMA-560 cells. Three days later treatment with Compound No. 79 was initiated, and survival was monitored. B. The animals were treated as in A, but were sacrificed on day 10 to obtain splenocytes. IFN-γ release at 24 h was assessed by Elispot. Data are expressed as cytokine-producing cells per 10^6 effector cells. C. The splenocytes were stimulated with IL-2 for 10 days to generate LAK cells. Their lytic activity was measured by ^51Cr release using SMA-560 as target cells (vehicle, open squares; Compound No. 79, filled squares) (*p<0.05, t-test).
IL-10, TNF-α and IFN-γ release by immune effector cells was assessed by Elispot assay in a multiscreen-HA 96 well plate (Millipore, Eschborn, Germany), coated with corresponding anti-human capture antibodies (Becton Dickinson). Briefly, 5×10^4 glioma cells were cocultured for 24 h with 105, 2.5×105 or 5×105 HLA-A2-mismatched, prestimulated (5 days) PBL. The cells were removed using double-distilled water, and captured cytokines were visualized using biotinylated antibodies and streptavidin-alkaline phosphatase (Becton Dickinson). Spots were counted on an Elispot reader system (AID, Straβberg, Germany). […]

For `Fc1ccc(Cl)cc1-c1nc(Nc2ccncc2)c2nccnc2n1` [Compound No. 79], the “viability in response to serum deprivation” value (glioma cells) was “did not modulate”, the “development of neurological symptoms” value ([1]; 1 mg/ml in drinking water from day 3, data not shown) was “delayed” and the “survival rate at 30 days” value ([1]; 1 mg/ml in drinking water from day 3, control 0%) was 29%. For the same molecule, the median survival ([1]; 1 mg/ml in drinking water from day 3, vehicle 18) was 23 days, the mean survival ([1]; 1 mg/ml in drinking water from day 3, vehicle 18.6±2.1, p=0.004) was 25.1 ± 6.5 days and the dose-limiting toxicity ([1]; drinking water 1 mg/ml) was “No dose-limiting toxicity has been reached”. The solubility [2] was “relatively poor solubility”, the cytotoxic effects (SMA-560 glioma cells) was “neiter LDH release nor trypan blue dye exclusion assays revealed cytotoxic effects” and the EC50 ([3]; TGF-β1 or TGF-β2 10 ng/ml, 72 h, FIG. 1A, read-out: EC50 of rescue of TGF-β-mediated inhibition of growth) was roughly 30 nM. The “growth inhibition mediated by glioma cell supernatants” value ([3]; diluted serum-free SMA-560 or LN-308 supernatants, same concentrations, FIG. 1B) was “nullified”, the “animals with increase over background of IFN-γ release by splenocytes” value ([4]; Elispot, day 7 after initiation of treatment, control 1 of 5, FIG. 4B) was 3 of 5 and the “lytic activity of LAK cells against SMA-560 targets” value ([4]; splenocytes stimulated with IL-2 for 10 days, 51Cr release, FIG. 4C) was “enhanced lytic activity”.
